Test results published in patent publication US8304223B2, “Isoforms of pig liver esterase” (Enzymicals AG, priority 2007, dated 2012).
Like-named read-outs stand apart in the source and are kept apart here.

Tests used:
PLE 3 = assay: Influence of inhibitors, remaining activity by pNPA assay; type: biochemical, pig; settings: 25° C.
Protocol: (§1) Esterase activity was determined spectrophotometrically in sodium phosphate buffer (50 mM) by means of p-nitrophenyl acetate (10 mM, dissolved in dimethyl sulfoxide) as substrate. The amount of p-nitrophenol generated was determined at a wavelength of 410 nm (ε=15*10^3 M^−1 cm^−1) at RT and pH 7.5. 1 unit (U) is defined as the amount of enzyme capable of converting 1 μM p-nitrophenol per minute under analytical conditions (Krebsfänger, N., et. al., (1998) Enzyme Microb. Technol, 22, 641-646).
(§2) The inhibitability of the new PLE variants was determined by treating the crude extracts with any of three esterase inhibitors. […] Samples were taken at certain points in time and the remaining esterase activity was determined by the pNPA assay.

PLE 4 = assay: as above; type: biochemical, pig; settings: 25° C.
Protocol: as §1, §2

PLE 5 = assay: as above; type: biochemical, pig; settings: 25° C.
Protocol: as §1, §2

PLE 2 = biological target: T1, PLE 2 (Sus scrofa, UniProt Q29550, F477A/K481R/L479F); assay: biochemical; type: biochemical, pig; settings: 25° C.; for Remaining activity in %: inhibitor 1 mM; for remaining activity at 10 µM: inhibitor 0.01 mM
T1 construct: made in house; host or cells: E. coli Origami (DE3) with pGro7 (GroEL/GroES coexpression), crude extract
T1 sequence (Q29550 19-562 F477A/L479F/K481R): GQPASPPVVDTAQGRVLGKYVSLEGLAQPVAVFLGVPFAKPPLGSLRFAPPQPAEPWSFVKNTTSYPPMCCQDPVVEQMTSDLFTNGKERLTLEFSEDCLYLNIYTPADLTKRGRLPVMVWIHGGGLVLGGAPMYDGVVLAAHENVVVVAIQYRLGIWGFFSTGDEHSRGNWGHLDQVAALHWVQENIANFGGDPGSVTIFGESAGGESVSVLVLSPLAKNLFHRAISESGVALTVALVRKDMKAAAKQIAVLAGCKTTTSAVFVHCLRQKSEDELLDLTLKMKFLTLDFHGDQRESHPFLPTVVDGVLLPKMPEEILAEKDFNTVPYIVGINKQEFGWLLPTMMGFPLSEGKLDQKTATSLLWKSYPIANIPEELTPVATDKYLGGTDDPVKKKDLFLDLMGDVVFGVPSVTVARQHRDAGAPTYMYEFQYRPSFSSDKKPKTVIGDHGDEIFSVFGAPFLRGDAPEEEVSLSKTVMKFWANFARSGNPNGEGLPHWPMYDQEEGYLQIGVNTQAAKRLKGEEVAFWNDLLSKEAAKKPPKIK
Protocol: as §1, §2

PLE 1 (γ-PLE) = biological target: T2, PLE 1 (γ-PLE) (Sus scrofa, UniProt Q29550); assay: biochemical; type: biochemical, pig; settings: 25° C.; for Remaining activity in %: inhibitor 1 mM; for remaining activity at 10 µM: inhibitor 0.01 mM
T2 construct: made in house; host or cells: E. coli Origami (DE3) with pGro7 (GroEL/GroES coexpression), crude extract
T2 sequence (Q29550 with tags, fused parts or gaps): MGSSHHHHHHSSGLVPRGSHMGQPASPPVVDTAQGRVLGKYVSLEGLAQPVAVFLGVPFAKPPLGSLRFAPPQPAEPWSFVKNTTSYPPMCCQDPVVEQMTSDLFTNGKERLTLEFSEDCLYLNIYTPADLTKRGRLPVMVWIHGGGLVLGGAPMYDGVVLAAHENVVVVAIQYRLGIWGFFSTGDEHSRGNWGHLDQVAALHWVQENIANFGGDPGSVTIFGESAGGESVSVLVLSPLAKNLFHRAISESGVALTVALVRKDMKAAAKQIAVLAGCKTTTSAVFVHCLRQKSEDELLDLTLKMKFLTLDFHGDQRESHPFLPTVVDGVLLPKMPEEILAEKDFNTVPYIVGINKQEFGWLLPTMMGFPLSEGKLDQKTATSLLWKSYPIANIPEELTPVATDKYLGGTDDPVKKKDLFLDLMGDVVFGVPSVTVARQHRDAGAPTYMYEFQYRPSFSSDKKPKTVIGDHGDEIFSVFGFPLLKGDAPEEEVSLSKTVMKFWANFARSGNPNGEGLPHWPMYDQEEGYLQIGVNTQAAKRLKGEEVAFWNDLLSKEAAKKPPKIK
Protocol: as §1, §2

[1] = Kinetic resolution of the racemates of substrate 3; type: biochemical; settings: calculated according to Chen et al.
Protocol: (§3) Hydrolysis was carried out in 1.5 ml reaction vessels in a thermomixer (Thermomixer comfort Eppendorf, Hamburg, Germany) at 37° C. 0.5 U esterase crude extract (based on the pNPA assay) were used for 1 ml of substrate solution (10 mM in sodium phosphate buffer pH 7.5, 50 mM). The reaction was stopped by extracting the mixture with dichloromethane, and the organic phase was dried over anhydrous sodium sulfate.
(§4) Enantiomeric purity and conversion were determined by gas chromatography. Enantioselectivity of the variant enzymes was calculated according to Chen et al. (C. S. Chen, Y. Fujimoto, G. Girdaukas, C. J. Sih, J. Am. Chem. Soc. 1982, 104, 7294.).
(§5) For a more detailed description of the synthesis of the substrates and the retention times in GC analysis, see Musidlowska-Persson, A. and Bornscheuer, U. T., “Substrate Specificity of the γ-isoenzyme of recombinant pig liver esterase towards acetates of secondary alcohols” J. Mol. Catal. B. Enzym. 2002, 19-20, 129-133.

[2] = Kinetic resolution of the racemates of substrate 1; type: biochemical; settings: calculated according to Chen et al.
Protocol: as §3, §4, §5

[3] = pH stat activity with achiral ester ethyl caprylate; type: biochemical; settings: purified enzyme, pH stat at 37° C. and pH 7.5, 10 min
Protocol: Esterase substrate specificity was analyzed at constant pH. […] The acid liberated was counter titrated automatically in a pH statiometer (Schott, Mainz, Germany) with 0.01 N NaOH in order to maintain a constant pH of 7.5. 1 unit (U) is defined as the amount of enzyme capable of generating 1 μM acid per minute under analytical conditions.

[4] = Kinetic resolution of the racemates of substrate 2; type: biochemical; settings: calculated according to Chen et al.
Protocol: as §3, §4, §5

[5] = Native PAGE with Fast Red activity staining; type: biochemical; settings: crude extracts, Fast Red staining with α-naphthyl acetate
Protocol: A mixture containing the crude extract of recombinantly produced PLE (5-15 μL, corresponding to 0.05-0.15 U of pNPA analysis) was mixed with buffer solution (20% (w/v) glycerol; 0.0025% (w/v) bromophenol blue in dH2O) (5-10 μL). Aliquots thereof were separated on a native polyacrylamide gel (7.5%). For activity staining, the gel was incubated in a mixture of freshly prepared α-naphthyl acetate and Fast Red. Formation of a red complex between α-naphthol generated and Fast Red indicated hydrolytic activity of the esterase. (Krebsfänger, N., et. al., (1998) Enzyme Microb. Technol, 22, 641-646). The gel was then stained with Coomassie Brilliant Blue.
Esterase activity was checked by applying the crude extracts to a native gel which was then incubated in Fast Red solution with α-naphthyl acetate as substrate. This was followed by Coomassie staining (FIG. 4: Native PAGE of the crude extracts of PLE2, clone 12, PLE3, PLE4, PLE5, γPLE and the E. coli Origami pGro7 wild type (negative control). Left-hand side: Fast Red staining with α-naphthyl acetate, right-hand side: subsequent Coomassie Brilliant Blue staining).

[6] = pH stat activity with achiral ester tributyrin; type: biochemical; settings: purified enzyme, pH stat at 37° C. and pH 7.5, 10 min
Protocol: (§6) Esterase substrate specificity was analyzed at constant pH. A known amount of esterase was added to an emulsion (20 mL) containing an ester substrate (5% (v/v); tributyrin, ethyl acetate, triolein or methyl butyrate) and gum arabic (2% (w/v)) at 37° C. The acid liberated was counter titrated automatically in a pH statiometer (Schott, Mainz, Germany) with 0.01 N NaOH in order to maintain a constant pH of 7.5. 1 unit (U) is defined as the amount of enzyme capable of generating 1 μM acid per minute under analytical conditions.

[7] = pH stat activity with achiral ester ethyl acetate; type: biochemical; settings: purified enzyme, pH stat at 37° C. and pH 7.5, 10 min
Protocol: as §6

[8] = pH stat activity with achiral ester triolein; type: biochemical; settings: purified enzyme, pH stat at 37° C. and pH 7.5, 10 min
Protocol: as §6

[9] = pNPA assay of esterase activity (crude extracts); type: biochemical; settings: crude extract, N-terminal His6 tag
Protocol: The chaperones were coexpressed with the PLE isoenzymes in 150 ml of LB medium containing 20 μg mL^−1 chloramphenicol and 50 μg mL^−1 ampicillin for plasmid selection. Chaperone expression was immediately initiated by adding 1 mg mL^−1 L-arabinose. PLE production was induced at OD600=0.5 by adding 40 μM IPTG. The cells were removed by centrifugation after 24 h, resuspended in 10 ml of sodium phosphate buffer (50 mM, pH 7.5) and disrupted using ultrasound. Cell debris was removed by centrifugation, and the supernatant was used for further experiments (crude cell extract). Protein content and esterase activity were determined according to Bradford or using the pNPA assay.
as §1

[10] = substrate 4; literature data (*); cited from earlier work
[11] = pH stat activity with achiral ester methyl butyrate; type: biochemical; settings: purified enzyme, pH stat at 37° C. and pH 7.5, 10 min
Protocol: as §6

[F-].[Na+] [NaF, sodium fluoride]
Remaining activity in % (PLE 3; inhibitor 1 mM, 5 min): 44% | Remaining activity in % (PLE 3; inhibitor 1 mM, 30 min): 46% | Remaining activity in % (PLE 4; inhibitor 1 mM, 5 min): 64% | Remaining activity in % (PLE 4; inhibitor 1 mM, 30 min): 66% | Remaining activity in % (PLE 5; inhibitor 1 mM, 5 min): 83% | Remaining activity in % (PLE 5; inhibitor 1 mM, 30 min): 88% | Remaining activity in % (PLE 2; 5 min): 17% | Remaining activity in % (PLE 2; 30 min): 15% | Remaining activity in % (PLE 1 (γ-PLE); 5 min): 20% | Remaining activity in % (PLE 1 (γ-PLE); 30 min): 21%

O=S(=O)(F)Cc1ccccc1 [Phenylmethylsulfonyl fluoride (PMSF), phenylmethylsulfonyl fluoride]
Remaining activity in % (PLE 3; inhibitor 0.01 mM, 1 min): 77% | Remaining activity in % (PLE 3; inhibitor 0.01 mM, 5 min): 51% | Remaining activity in % (PLE 3; inhibitor 0.01 mM, 30 min): 7% | Remaining activity in % (PLE 3; inhibitor 0.01 mM, 60 min): 5% | Remaining activity in % (PLE 4; inhibitor 0.01 mM, 1 min): 78% | Remaining activity in % (PLE 4; inhibitor 0.01 mM, 5 min): 56% | Remaining activity in % (PLE 4; inhibitor 0.01 mM, 30 min): 7% | Remaining activity in % (PLE 4; inhibitor 0.01 mM, 60 min): 2% | Remaining activity in % (PLE 5; inhibitor 0.01 mM, 1 min): 88% | Remaining activity in % (PLE 5; inhibitor 0.01 mM, 5 min): 76% | Remaining activity in % (PLE 5; inhibitor 0.01 mM, 30 min): 24% | Remaining activity in % (PLE 5; inhibitor 0.01 mM, 60 min): 3%

CNC(=O)Oc1ccc2c(c1)[C@]1(C)CCN(C)[C@@H]1N2C [Physostigmine, physostigmine]
remaining activity at 10 µM (PLE 2; 1 min): 61% | remaining activity at 10 µM (PLE 2; 5 min): 25% | remaining activity at 10 µM (PLE 2; 30 min): 6% | remaining activity at 10 µM (PLE 1 (γ-PLE); 1 min): 41% | remaining activity at 10 µM (PLE 1 (γ-PLE); 5 min): 12% | remaining activity at 10 µM (PLE 1 (γ-PLE); 30 min): 7%

B1: PLE 1: previously disclosed γ-isoenzyme of pig liver esterase (Seq. ID No. 2), recombinant from E. coli Origami with GroEL/ES (protein)
chain: MGSSHHHHHHSSGLVPRGSHMGQPASPPVVDTAQGRVLGKYVSLEGLAQPVAVFLGVPFAKPPLGSLRFAPPQPAEPWSFVKNTTSYPPMCCQDPVVEQMTSDLFTNGKERLTLEFSEDCLYLNIYTPADLTKRGRLPVMVWIHGGGLVLGGAPMYDGVVLAAHENVVVVAIQYRLGIWGFFSTGDEHSRGNWGHLDQVAALHWVQENIANFGGDPGSVTIFGESAGGESVSVLVLSPLAKNLFHRAISESGVALTVALVRKDMKAAAKQIAVLAGCKTTTSAVFVHCLRQKSEDELLDLTLKMKFLTLDFHGDQRESHPFLPTVVDGVLLPKMPEEILAEKDFNTVPYIVGINKQEFGWLLPTMMGFPLSEGKLDQKTATSLLWKSYPIANIPEELTPVATDKYLGGTDDPVKKKDLFLDLMGDVVFGVPSVTVARQHRDAGAPTYMYEFQYRPSFSSDKKPKTVIGDHGDEIFSVFGFPLLKGDAPEEEVSLSKTVMKFWANFARSGNPNGEGLPHWPMYDQEEGYLQIGVNTQAAKRLKGEEVAFWNDLLSKEAAKKPPKIK
modifications: Pig liver
E (enantioselectivity) [1]: 72 | E (enantioselectivity) [2]: 4 | Specific activity, Ethyl caprylate [3]: 63 | E (enantioselectivity) [4]: 17 | Esterase activity (active bands) in native gel [5]: Active esterase bands are visible | Specific activity, Tributyrin [6]: 306 | Specific activity, Ethyl acetate [7]: 38 | Specific activity, Triolein [8]: 0 | Volume activity [9]: 11 U/ml | E (enantioselectivity) [10]: 17 | Specific activity, Methyl butyrate [11]: 57
